Test results reported in patent US9579325B2, “Modulators of TNF-α signaling” (Genzyme Corporation, priority 2000, dated 2017).
Like-named read-outs stand apart in the source and are kept apart here.

System: L929 cells
Test: TNF High Throughput Screen (TNF-α driven apoptosis assay)
Format: cell-based, mouse
Conditions: human TNF-α + actinomycin D, read-out: TNFα IC50
Text: Description of Table V: The results shown in Table V were obtained using the TNF-α assays performed as described in the protocols entitled “Method for TNF High Throughput Screen” and “Method for VCAM High Throughput Screen”, which are detailed below. These assays measure a cellular response to TNF-α stimulation, and the data published in the table are expressed as percentage inhibitions. Percentage inhibition is computed on a scale of 0 to 100% where 0 percent inhibition means the compound has no effect in the assay (the response is indistinguishable from TNF-α treatment alone), and 100% inhibition means that when the compound is present at the stated concentration, the response in the assay is the same as if TNF-α were not added. These two assays measure two different outcomes of TNF-α treatment, cell death and Vascular Cell Adhesion Molecule (VCAM) expression, and capture two of TNF-α's many biological effects. TNF-α induced apoptosis is a mechanism by which TNF-α production during immune/inflammatory responses can lead to direct cellular and tissue damage. TNF-α VCAM expression in endothelial cells is a response that allows leukocytes to leave the blood and enter a site of immune/inflammatory response. Both of these activities could lead to pathology in immune/inflammatory diseases. In the first column of the table, the percentage inhibition of the TNF-α driven apoptosis assay when the compounds are tested at 1 μM concentration is presented. The second column in the table lists the IC50 for the compound, a standard measure using a dilution series in the assay, and fitting a sigmoidal curve to the resulting dose-response curve. The IC50 is the concentration (derived analytically from the sigmoidal function) at which the compound would inhibit 50% of the response in the assay. The third and fourth column list the corresponding analysis for the TNF-α driven VCAM assay. In Table VI, data corresponding to the data in column 1 of Table V is shown, with human cells replacing the mouse cells used in the high throughput screen. […] As a consequence, the compounds will have use in treating more than one TNF-α mediated condition, and may be selected according to the manner in which the condition manifests. This corresponds to the use of these compounds in the treatment of human disease.
TNF High Throughput Screen.
• 1. Plate 4×10^4 L929 cells in 100 μl of complete EMEM in Costar 96 well plates in PM. • 2. The next day, pretreat with compound, inhibitor and control vehicle for 2 hours. • 3. After 2 hours pretreatment, add 10 μl 5 ng/ml human TNF-α and actinomycin D (40 μg/ml final concentration). • 4. Incubate overnight. • 5. In AM, remove supernatant. • 6. Wash on a plate washer (0.9% NaCl). • 7. Add 100 μl Crystal Violet 0.1% in 20% ETOH. • 8. Incubate at RT for 10 minutes. • 9. Wash on plate washer. • 10. Air dry wells at 37° C. • 11. Add 100 μl of methanol to each well. • 12. Shake plates on orbital shaker and read at 595 nm on plate reader. VCAM High Throughput Screen: Protocol: • 1. Plate Primary human umbilical vein endothelial cells at 1.8×10^4 cells/well in a 96-well tissue culture plate. • 2. Return Plates to 37° C. incubator for 48-72 hours before assay. • 3. On assay day, aspirate wells and add 1804, of endothelial growth cell medium (EGM) to each well. • 4. Add Compound to each well. • 5. Shake plates for 3 minutes. • 6. Incubate plate for 1 hour at 37° C. • 7. Add Tumor Necrosis Factor (TNF) at 1.0 ng/ml final concentration. • 8. Shake plates for 3 minutes. • 9. Incubate plate for 2 hours at 37° C. • 10. Remove plate from incubator and wash plate 3 times with phosphate buffered saline (PBS) using a plate washer. • 11. Add anti-VCAM antibody at 0.5 μg/ml final concentration. • 12. Incubate at 4° C. overnight. • 13. Wash 3 times with PBS on plate washer. • 14. Add goat anti-mouse horseradish peroxidase conjugate. • 15. Incubate at room temperature for one hour. • 16. Wash 3 times with PBS on plate washer. • 17. […]

N#Cc1cccc(C(C(=O)NCCc2ccccc2)N(CCc2c[nH]cn2)C(=O)c2ccccc2C(=O)c2ccccc2)c1 (stereo not drawn) [Compound 1]
IC50 (Mus musculus): 2640 nM

N#Cc1cccc(C(C(=O)NC(c2ccccc2)c2ccccc2)N(CCc2c[nH]cn2)C(=O)c2ccccc2C(=O)c2ccccc2)c1 (stereo not drawn) [Compound 2]
IC50 (Mus musculus): 5650 nM

N#Cc1cccc(C(C(=O)NC(Cc2ccccc2)c2ccccc2)N(CCc2c[nH]cn2)C(=O)c2ccccc2C(=O)c2ccccc2)c1 (stereo not drawn) [Compound 3]
IC50 (Mus musculus): 1290 nM

N#Cc1cccc(C(C(=O)NCCC(c2ccccc2)c2ccccc2)N(CCc2c[nH]cn2)C(=O)c2ccccc2C(=O)c2ccccc2)c1 (stereo not drawn) [Compound 4]
IC50 (Mus musculus): 941 nM

O=C(c1ccccc1)c1ccccc1C(=O)N(CCc1c[nH]cn1)C(C(=O)NCC(c1ccccc1)c1ccccc1)c1ccccc1 (stereo not drawn) [Compound 5, 2-Benzoyl-N-[(2,2-diphenyl-ethylcarbamoyl)-phenyl-methyl]-N-[2-(1H-imidazol-4-yl)-ethyl]-benzamide]
IC50 (Mus musculus): 872 nM

Cc1ccccc1C(C(=O)NCC(c1ccccc1)c1ccccc1)N(CCc1c[nH]cn1)C(=O)c1ccccc1C(=O)c1ccccc1 (stereo not drawn) [Compound 6]
IC50 (Mus musculus): 1060 nM

Cc1cccc(C(C(=O)NCC(c2ccccc2)c2ccccc2)N(CCc2c[nH]cn2)C(=O)c2ccccc2C(=O)c2ccccc2)c1 (stereo not drawn) [Compound 7]
IC50 (Mus musculus): 4010 nM

Cc1ccc(C(C(=O)NCC(c2ccccc2)c2ccccc2)N(CCc2c[nH]cn2)C(=O)c2ccccc2C(=O)c2ccccc2)cc1 (stereo not drawn) [Compound 8]
IC50 (Mus musculus): 1620 nM

CN(C)CCN(C(=O)c1ccccc1C(=O)c1ccccc1)C(C(=O)NCC(c1ccccc1)c1ccccc1)c1cccc(C#N)c1 (stereo not drawn) [Compound 9]
IC50 (Mus musculus): 496 nM

N#Cc1cccc(C(C(=O)NCC(c2ccccc2)c2ccccc2)N(CCc2c[nH]cn2)C(=O)c2ccccc2Cc2ccccc2)c1 (stereo not drawn) [Compound 10]
IC50 (Mus musculus): 3680 nM

N#Cc1cccc(C(C(=O)NCC(c2ccccc2)c2ccccc2)N(CCN2CCOCC2)C(=O)c2ccccc2C(=O)c2ccccc2)c1 (stereo not drawn) [Compound 11]
IC50 (Mus musculus): 2890 nM

CSc1ccc(C(C(=O)NCC(c2ccccc2)c2ccccc2)N(CCc2c[nH]cn2)C(=O)c2ccccc2C(=O)c2ccccc2)cc1 (stereo not drawn) [Compound 12]
IC50 (Mus musculus): 5150 nM

Cn1cnc(CCN(C(=O)c2ccccc2C(=O)c2ccccc2)C(C(=O)NCC(c2ccccc2)c2ccccc2)c2cccc(C#N)c2)c1 (stereo not drawn) [Compound 13]
IC50 (Mus musculus): 1370 nM

Cn1cncc1CCN(C(=O)c1ccccc1C(=O)c1ccccc1)C(C(=O)NCC(c1ccccc1)c1ccccc1)c1cccc(C#N)c1 (stereo not drawn) [Compound 14]
IC50 (Mus musculus): 1790 nM

N#Cc1cccc(C(C(=O)NCC(c2ccccc2)c2ccccc2)N(CCc2c[nH]cn2)C(=O)c2ccccc2C(=O)c2ccccn2)c1 (stereo not drawn) [Compound 15]
IC50 (Mus musculus): 386 nM

O=C(c1ccccc1)c1ccccc1C(=O)N(CCc1c[nH]cn1)C(C(=O)NCC(c1ccccc1)c1ccccc1)c1cccc(Cl)c1 (stereo not drawn) [Compound 16]
IC50 (Mus musculus): 1320 nM

O=C(c1ccccc1)c1ccccc1C(=O)N(CCc1c[nH]cn1)C(C(=O)NCC(c1ccccc1)c1ccccc1)c1cccc(C(F)(F)F)c1 (stereo not drawn) [Compound 17]
IC50 (Mus musculus): 1500 nM

COc1ccc(CCNC(=O)C(c2cccc(C#N)c2)N(CCc2c[nH]cn2)C(=O)c2ccccc2C(=O)c2ccccc2)cc1 (stereo not drawn) [Compound 18]
IC50 (Mus musculus): 2680 nM

COc1ccc(C(=O)c2ccccc2C(=O)N(CCc2c[nH]cn2)C(C(=O)NCC(c2ccccc2)c2ccccc2)c2cccc(C#N)c2)cc1 (stereo not drawn) [Compound 19]
IC50 (Mus musculus): 457 nM

N#Cc1cccc(C(C(=O)NCC(c2ccccc2)c2ccccc2)N(CCc2c[nH]cn2)C(=O)c2ccccc2C(=O)c2ccc(Cl)cc2)c1 (stereo not drawn) [Compound 20]
IC50 (Mus musculus): 299 nM

N#Cc1cccc(C(C(=O)NCC(c2ccccc2)c2ccccc2)N(CCn2ccnc2)C(=O)c2ccccc2C(=O)c2ccccc2)c1 (stereo not drawn) [Compound 21]
IC50 (Mus musculus): 913 nM

N#Cc1cccc(C(C(=O)NCC(c2ccccc2)c2ccccc2)N(CCc2c[nH]cn2)C(=O)c2ccccc2-c2ccco2)c1 (stereo not drawn) [Compound 22]
IC50 (Mus musculus): 3850 nM

N#Cc1cccc(C(C(=O)NCC(C2CCCCC2)C2CCCCC2)N(CCc2c[nH]cn2)C(=O)c2ccccc2C(=O)c2ccccc2)c1 (stereo not drawn) [Compound 23]
IC50 (Mus musculus): 2580 nM

N#Cc1cccc(C(C(=O)NCC(c2ccccc2)c2ccccc2)N(CCCc2c[nH]cn2)C(=O)c2ccccc2C(=O)c2ccccc2)c1 (stereo not drawn) [Compound 24]
IC50 (Mus musculus): 1030 nM

N#Cc1cccc(C(C(=O)NCC(c2ccccc2)C2CCCC2)N(CCc2c[nH]cn2)C(=O)c2ccccc2C(=O)c2ccccc2)c1 (stereo not drawn) [Compound 25]
IC50 (Mus musculus): 1580 nM

CN(CC(c1ccccc1)c1ccccc1)C(=O)C(c1ccccc1)N(CCc1c[nH]cn1)C(=O)c1ccccc1C(=O)c1ccccc1 (stereo not drawn) [Compound 26, 2-Benzoyl-N-{[(2,2-diphenyl-ethyl)-methyl-carbamoyl]-phenyl-methyl}-N-[2-(1H-imidazol-4-yl)-ethyl]-benzamide]
IC50 (Mus musculus): 3360 nM

O=C(c1ccccc1)c1ccccc1C(=O)N(CCc1c[nH]cn1)C(Cc1ccccc1C(F)(F)F)C(=O)NCC(c1ccccc1)c1ccccc1 (stereo not drawn) [Compound 27]
IC50 (Mus musculus): 2720 nM

O=C(c1ccccc1)c1ccccc1C(=O)N(CCc1c[nH]cn1)C(Cc1cccc(C(F)(F)F)c1)C(=O)NCC(c1ccccc1)c1ccccc1 (stereo not drawn) [Compound 28]
IC50 (Mus musculus): 5270 nM

N#Cc1cccc(C(C(=O)NCC(c2ccccc2)c2ccccc2)N(CCc2c[nH]cn2)C(=O)c2ccccc2-c2cccs2)c1 (stereo not drawn) [Compound 29]
IC50 (Mus musculus): 3720 nM

O=C(c1ccccc1)c1ccccc1C(=O)N(CCc1c[nH]cn1)C(Cc1ccccc1Cl)C(=O)NCC(c1ccccc1)c1ccccc1 (stereo not drawn) [Compound 30]
IC50 (Mus musculus): 2360 nM

O=C(c1ccccc1)c1ccccc1C(=O)N(CCc1c[nH]cn1)C(Cc1cccc(Cl)c1)C(=O)NCC(c1ccccc1)c1ccccc1 (stereo not drawn) [Compound 31]
IC50 (Mus musculus): 3350 nM

O=C(c1ccccc1)c1ccccc1C(=O)N(CCc1c[nH]cn1)C(Cc1ccc(Cl)cc1)C(=O)NCC(c1ccccc1)c1ccccc1 (stereo not drawn) [Compound 32]
IC50 (Mus musculus): 2330 nM

COc1ccccc1CC(C(=O)NCC(c1ccccc1)c1ccccc1)N(CCc1c[nH]cn1)C(=O)c1ccccc1C(=O)c1ccccc1 (stereo not drawn) [Compound 33]
IC50 (Mus musculus): 2350 nM

COc1cccc(CC(C(=O)NCC(c2ccccc2)c2ccccc2)N(CCc2c[nH]cn2)C(=O)c2ccccc2C(=O)c2ccccc2)c1 (stereo not drawn) [Compound 34]
IC50 (Mus musculus): 1540 nM

COc1ccc(CC(C(=O)NCC(c2ccccc2)c2ccccc2)N(CCc2c[nH]cn2)C(=O)c2ccccc2C(=O)c2ccccc2)cc1 (stereo not drawn) [Compound 35]
IC50 (Mus musculus): 2640 nM

O=C(c1ccccc1)c1ccccc1C(=O)N(CCc1c[nH]cn1)C(Cc1ccccc1F)C(=O)NCC(c1ccccc1)c1ccccc1 (stereo not drawn) [Compound 36]
IC50 (Mus musculus): 2150 nM

O=C(c1ccccc1)c1ccccc1C(=O)N(CCc1c[nH]cn1)C(Cc1cccc(F)c1)C(=O)NCC(c1ccccc1)c1ccccc1 (stereo not drawn) [Compound 37]
IC50 (Mus musculus): 2360 nM

O=C(c1ccccc1)c1ccccc1C(=O)N(CCc1c[nH]cn1)C(Cc1ccc(F)cc1)C(=O)NCC(c1ccccc1)c1ccccc1 (stereo not drawn) [Compound 38]
IC50 (Mus musculus): 2790 nM

N#Cc1cccc(C(C(=O)NCC(c2ccccc2)c2ccccn2)N(CCc2c[nH]cn2)C(=O)c2ccccc2C(=O)c2ccccc2)c1 (stereo not drawn) [Compound 39]
IC50 (Mus musculus): 1320 nM

[N-]=[N+]=Nc1cccc(C(C(=O)NCC(c2ccccc2)c2ccccc2)N(CCc2c[nH]cn2)C(=O)c2ccccc2C(=O)c2ccccc2)c1 (stereo not drawn) [Compound 40]
IC50 (Mus musculus): 1740 nM

CN(C)CCN(C(=O)c1ccccc1C(=O)c1ccccc1)C(Cc1ccccc1)C(=O)NCC(c1ccccc1)c1ccccc1 (stereo not drawn) [Compound 41]
IC50 (Mus musculus): 6490 nM

O=C(c1ccccc1)c1ccccc1C(=O)N(CCc1c[nH]cn1)[C@H](Cc1ccccc1)C(=O)NCC(c1ccccc1)c1ccccc1 [Compound 47, 2-Benzoyl-N-[(1′R)-1′(2,2′-diphenyl-ethylcarbamoyl)-2′-phenyl-ethyl]-N-[2-(1H-imidazol-4-yl)-ethyl]-benzamide]
IC50: 5580 nM
